US9995734B2, “Human T cell line assay for evaluating the immunologic identity of glatiramer acetate preparations” (Mylan Inc., priority 2013, dated 2018)
Values joined by “and” are separate entries in the source; they are usually repeats but may differ in a detail not shown here. Equal values may be shown once.

Columns and labels:
Type in all cases: cell-based, human
Donor 4 COP T-Cell Lines = test: ATP proliferation assay (CellTiter Glo), Donor 4 COP T-cell lines, incl. reactivity to non-canonical GA peptides; details: for Non-Canonical Peptide Non-Reactivity: proliferation <2 times no antigen control; for Proliferation (luminescent ATP assay), Mean: T-cell line 205-1F4, Day 71, autologous B-LCL
[1] = tested on: Donor 1 GMA Expanded T-Cell Lines (222-AG11, 222-AG12, 222-BA11, 222-BC11); test: ATP proliferation assay (CellTiter Glo), Donor 1 GMA expanded T-cell lines, incl. reactivity to non-canonical GA peptides; details: for Proliferation (luminescent ATP assay), Mean: T-cell line 222-AG12, autologous B-LCL
Method: Proliferation was evaluated by measuring ATP content using a luminescent method (CellTiter Glo Luminescent Cell Viability Assay, Promega, Madison, Wis., cat. #G7571) or by measuring BrdU uptake by ELISA (Millipore cat. #2752), in both cases following kit instructions. A split well format was used. Cells in each well were resuspended and 65 μl transferred to the wells of each of two new U-bottom 96-well plates, to generate the replicate plates. For the initial screening, the original 96-well plate received mitomycin-treated autologous PBMC as APC plus 10 μg/mL antigen (GA). A first replicate plate received 100 μl., mitomycin-treated PBMC alone (2×10^5), and no antigen, and a second replicate plate received 100 μL mitomycin-treated PBMC plus GA at a final concentration of 10 μg/mL. Therefore, all three plates received autologous APC (PBMC) treated with mitomycin C to prevent cell division. […] The latter two plates were incubated for 3 days at 37° C., 6% CO2 before adding CellTiter Glo or BrdU and measuring signal. IL-2 was added at 10 U/mL to the original 96-well plate for expansion on Day 17. For subsequent screenings, mitomycin-treated EBV-transformed autologous B-LCL (2×10^5 to 5×10^5 cells/mL) were used as APC.
On Day 24, cells from the wells corresponding to the eight presumptive GA-specific human T-cell lines listed in Table 4 were transferred to a 24-well plate and expanded by stimulating with 10 μg/mL GMA and mitomycin-treated autologous PBMC as APC (3×10^6 per well, i.e., 1.5×10^6/mL). On Day 32 four of the eight lines, 222-BA11, 222-BC11, 222-AG11, and 222-AG12, were stimulated with 0, 1, 10 and 100 μg/mL GMA and tested in a 96-well plate for a proliferative response to GMA using an ATP assay, again using autologous PBMC as APC (2×10^5 per well, i.e., 1×10^6/mL). […] FIGS. 2A and B show the results of the ATP proliferation assay carried out using 222-AG12, 222-BC11, 222-AG11, and 222-BA11 at Day 35 (control=no antigen). FIGS. 3A-C compare the results of ATP proliferation assays carried out after stimulation with varying concentrations of GMA or Copaxone as indicated, using cell lines 222-BA11, 222-BC11, and 222-AG12.
Donor 1 GMA T-cell line 222-AG12 was assayed for proliferation following stimulation with 0, 1, 10, and 30 μg/mL each of peptides GLT 631, GAT 631, GAT 111, LT 11, GT 11, GL 14, COP, and GMA, at a T-cell concentration of 2×10^5 cells/mL, in the presence of mitomycin C-treated autologous B-LCL. Line 222-AG12 was assayed after 3 rounds of restimulation (4 total stimulations). Proliferation was measured by luminescent ATP assay.

Donor 3 COP T-Cell Lines = test: ATP proliferation assay (CellTiter Glo), Donor 3 COP T-cell lines, incl. reactivity to non-canonical GA peptides; details: for Non-Canonical Peptide Reactivity: at least one proliferation value >=2 times no antigen control

## poly (Glu-Lys; 1:4) [GL 14]
Donor 4 COP T-Cell Lines; 205-1F4
  Non-Canonical Peptide Non-Reactivity: GL 14
Donor 4 COP T-Cell Lines; 205-1H3, at 1 μg/mL of antigen
  reactivity to non-canonical GA peptide: showed reactivity
Donor 4 COP T-Cell Lines; 205-1H3, at least one proliferation value >=2 times no antigen control
  Non-Canonical Peptide Reactivity: GL 14
Donor 4 COP T-Cell Lines; 205-1H11
  Non-Canonical Peptide Non-Reactivity: GL 14
Donor 4 COP T-Cell Lines; Donor 4 COP lines, at least a 50% increase in proliferation relative to a control after stimulation with the non-canonical GA peptide
  Reactive T-Cell Line: 205-1H3 (Donor 4)
Donor 4 COP T-Cell Lines; Donor 4 COP lines, stimulation with the non-canonical GA peptide
  Nonreactive T-Cell Line: 205-1F4 (Donor 4) and 205-1H11 (Donor 4)
Donor 4 COP T-Cell Lines; 1 μg/mL antigen
  Proliferation (luminescent ATP assay), Mean: 12630
Donor 4 COP T-Cell Lines; 3 μg/mL antigen
  Proliferation (luminescent ATP assay), Mean: 1423
Donor 4 COP T-Cell Lines; 10 μg/mL antigen
  Proliferation (luminescent ATP assay), Mean: 158
Donor 4 COP T-Cell Lines; T-cell line 205-1H3, 1 μg/mL antigen, 0 μg/mL 4121.0
  Reactivity (proliferation), Mean: 15619.0
Donor 4 COP T-Cell Lines; T-cell line 205-1H3, 3 μg/mL antigen, 0 μg/mL 4121.0
  Reactivity (proliferation), Mean: 1053.3
Donor 4 COP T-Cell Lines; T-cell line 205-1H3, 10 μg/mL antigen, 0 μg/mL 4121.0
  Reactivity (proliferation), Mean: 61.0
Donor 4 COP T-Cell Lines; T-cell line 205-1H11, 1 μg/mL antigen, 0 μg/mL 6941
  Reactivity (proliferation), Mean: 5954 RLU
Donor 4 COP T-Cell Lines; T-cell line 205-1H11, 10 μg/mL antigen, 0 μg/mL 6941
  Reactivity (proliferation), Mean: 102 RLU
Donor 4 COP T-Cell Lines; T-cell line 205-1H11, 30 μg/mL antigen, 0 μg/mL 6941
  Reactivity (proliferation), Mean: 74 RLU
[1]; 222-AG12, proliferation <2 times no antigen control
  Non-Canonical Peptide Non-Reactivity: GL 14
[1]; Donor 1 GMA expanded lines, stimulation with the non-canonical GA peptide
  Nonreactive T-Cell Line: 222-AG12 (Donor 1)
[1]; 1 ug/mL antigen
  Proliferation (luminescent ATP assay), Mean: 3531 RLU
[1]; 10 ug/mL antigen
  Proliferation (luminescent ATP assay), Mean: 55 RLU
[1]; 30 ug/mL antigen
  Proliferation (luminescent ATP assay), Mean: 43 RLU
Donor 3 COP T-Cell Lines; 165-C4C
  Non-Canonical Peptide Reactivity: GL 14
Donor 3 COP T-Cell Lines; 165-C7C
  Non-Canonical Peptide Reactivity: GL 14
Donor 3 COP T-Cell Lines; 165-F3C (Day 77) and 165-C4C (Day 66), 0, 1, 3, 10 μg/mL
  proliferation response to non-canonical GA peptides: responded well
Donor 3 COP T-Cell Lines; 165-F3C
  Non-Canonical Peptide Reactivity: GL 14
Donor 3 COP T-Cell Lines; 165-F6C, Day 76, 0, 1.25, 2.5, 5, 10 μg/mL
  proliferation response to non-canonical GA peptides: reacted
Donor 3 COP T-Cell Lines; 165-F6C, Day 76, dose of 2.5 μg/mL antigen
  response relative to the no antigen control: 4.4 fold
Donor 3 COP T-Cell Lines; 165-F6C
  Non-Canonical Peptide Reactivity: GL 14
Donor 3 COP T-Cell Lines; Donor 3 COP lines, at least a 50% increase in proliferation relative to a control after stimulation with the non-canonical GA peptide
  Reactive T-Cell Line: 165-C4C (Donor 3) and 165-C7C (Donor 3) and 165-F6C (Donor 3) and 165-F3C (Donor 3)
Donor 3 COP T-Cell Lines; T-cell line 165-C4C, 1 μg/mL antigen, Day 66 of culture, 0 μg/mL 1881
  Proliferation (luminescent ATP assay), Mean: 2833
Donor 3 COP T-Cell Lines; T-cell line 165-C4C, 3 μg/mL antigen, Day 66 of culture, 0 μg/mL 1881
  Proliferation (luminescent ATP assay), Mean: 4920
Donor 3 COP T-Cell Lines; T-cell line 165-C4C, 10 μg/mL antigen, Day 66 of culture, 0 μg/mL 1881
  Proliferation (luminescent ATP assay), Mean: 49
Donor 3 COP T-Cell Lines; T-cell line 165-C7C, 1.25 μg/mL antigen, autologous B-LCL
  Proliferation (luminescent ATP assay), Mean: 274 RLU
Donor 3 COP T-Cell Lines; T-cell line 165-C7C, 2.5 μg/mL antigen, autologous B-LCL
  Proliferation (luminescent ATP assay), Mean: 1797 RLU
Donor 3 COP T-Cell Lines; T-cell line 165-C7C, 5 μg/mL antigen, autologous B-LCL
  Proliferation (luminescent ATP assay), Mean: 537 RLU
Donor 3 COP T-Cell Lines; T-cell line 165-C7C, 10 μg/mL antigen, autologous B-LCL
  Proliferation (luminescent ATP assay), Mean: 39 RLU
Donor 3 COP T-Cell Lines; T-cell line 165-F3C, 1 μg/mL antigen, Day 77 of culture, 0 μg/mL 1563
  Proliferation (luminescent ATP assay), Mean: 2542
Donor 3 COP T-Cell Lines; T-cell line 165-F3C, 3 μg/mL antigen, Day 77 of culture, 0 μg/mL 1563
  Proliferation (luminescent ATP assay), Mean: 7091
Donor 3 COP T-Cell Lines; T-cell line 165-F3C, 10 μg/mL antigen, Day 77 of culture, 0 μg/mL 1563
  Proliferation (luminescent ATP assay), Mean: 65
Donor 3 COP T-Cell Lines; T-cell line 165-F6C, 1.25 μg/mL antigen, Day 76 of culture, No Antigen value 517
  Proliferation (luminescent ATP assay), Mean: 699
Donor 3 COP T-Cell Lines; T-cell line 165-F6C, 2.5 μg/mL antigen, Day 76 of culture, No Antigen value 517
  Proliferation (luminescent ATP assay), Mean: 2,267
Donor 3 COP T-Cell Lines; T-cell line 165-F6C, 5 μg/mL antigen, Day 76 of culture, No Antigen value 517
  Proliferation (luminescent ATP assay), Mean: 114
Donor 3 COP T-Cell Lines; T-cell line 165-F6C, 10 μg/mL antigen, Day 76 of culture, No Antigen value 517
  Proliferation (luminescent ATP assay), Mean: 33
